“And” between values parts separate entries of the source, which are not always exact repeats. Equal entries are not always repeated.
Tested on: 128128-338-R-J1-PDC spheroids, viability % test/control
Assay: Anticancer human tumor 128128-338-R-J1-PDC patient-derived melanoma cell line growth inhibition [TAK]
Conditions: spheroids with HUVEC and MSC; for viability, T/C: stronger effect = lower value
How it was run: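 Tumor cells were grown as spheroids with HUVEC and hMSC (60:25:15) and treated with targeted agents combined with TAK-243 or ipatasertib. Drugs were tested in half-log steps down from near the clinical Cmax, or from 10 microM where Cmax was unknown.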

[1] = curve of first compound, second compound 0.3 µM
[2] = curve of first compound, second compound 0.949 µM
[3] = curve of first compound, second compound 3 µM
[4] = curve of first compound, second compound 9.49 µM
[5] = curve of first compound, second compound 30 µM
[6] = second compound 0.3 µM, first compound 0.000316 µM
[7] = second compound 0.3 µM, first compound 0.001 µM
[8] = second compound 0.3 µM, first compound 0.00316 µM
[9] = second compound 0.3 µM, first compound 0.01 µM
[10] = second compound 0.949 µM, first compound 0.000316 µM
[11] = second compound 0.949 µM, first compound 0.001 µM
[12] = second compound 0.949 µM, first compound 0.00316 µM
[13] = second compound 0.949 µM, first compound 0.01 µM
[14] = second compound 3 µM, first compound 0.000316 µM
[15] = second compound 3 µM, first compound 0.001 µM
[16] = second compound 3 µM, first compound 0.00316 µM
[17] = second compound 3 µM, first compound 0.01 µM
[18] = second compound 9.49 µM, first compound 0.000316 µM
[19] = second compound 9.49 µM, first compound 0.001 µM
[20] = second compound 9.49 µM, first compound 0.00316 µM
[21] = second compound 9.49 µM, first compound 0.01 µM
[22] = second compound 30 µM, first compound 0.000316 µM
[23] = second compound 30 µM, first compound 0.001 µM
[24] = second compound 30 µM, first compound 0.00316 µM
[25] = second compound 30 µM, first compound 0.01 µM
[26] = second compound 0.3 µM, first compound 0.0316 µM
[27] = second compound 0.3 µM, first compound 0.1 µM
[28] = second compound 0.949 µM, first compound 0.0316 µM
[29] = second compound 0.949 µM, first compound 0.1 µM
[30] = second compound 3 µM, first compound 0.0316 µM
[31] = second compound 3 µM, first compound 0.1 µM
[32] = second compound 9.49 µM, first compound 0.0316 µM
[33] = second compound 9.49 µM, first compound 0.1 µM
[34] = second compound 30 µM, first compound 0.0316 µM
[35] = second compound 30 µM, first compound 0.1 µM
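Further: spheroids exposed to compounds for 7 days.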
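Wherever viability, T/C is given: 100% = DMSO vehicle wells.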

CC(C)CC(NC(=O)C(Cc1ccccc1)NC(=O)c1cnccn1)B(O)O (configuration not stated) + CC(C)NCC(C(=O)N1CCN(c2ncnc3c2C(C)CC3O)CC1)c1ccc(Cl)cc1
IC50 [1]: 1.8 nM
IC50 [2]: 1.82 nM
IC50 [3]: 1.64 nM
IC50 [4]: 1.22 nM
IC50 [5]: < 0.0316 nM
viability, T/C (second compound 0.3 µM, first compound 31.6 pM): 102%
viability, T/C (second compound 0.3 µM, first compound 0.0001 µM): 102%
viability, T/C [6]: 96.1%
viability, T/C [7]: 97.3%
viability, T/C [8]: 4.43%
viability, T/C [9]: 0.08%
viability, T/C (second compound 0.949 µM, first compound 31.6 pM): 102%
viability, T/C (second compound 0.949 µM, first compound 0.0001 µM): 108%
viability, T/C [10]: 109%
viability, T/C [11]: 101%
viability, T/C [12]: 2.86%
viability, T/C [13]: 0.1%
viability, T/C (second compound 3 µM, first compound 31.6 pM): 84%
viability, T/C (second compound 3 µM, first compound 0.0001 µM): 87.6%
viability, T/C [14]: 90.9%
viability, T/C [15]: 83.1%
viability, T/C [16]: 6.23%
viability, T/C [17]: 0.05%
viability, T/C (second compound 9.49 µM, first compound 31.6 pM): 66.8%
viability, T/C (second compound 9.49 µM, first compound 0.0001 µM): 71%
viability, T/C [18]: 72.5%
viability, T/C [19]: 60%
viability, T/C [20]: 1.26%
viability, T/C [21]: 0.08%
viability, T/C (second compound 30 µM, first compound 31.6 pM): 21.8%
viability, T/C (second compound 30 µM, first compound 0.0001 µM): 21.8%
viability, T/C [22]: 23.7%
viability, T/C [23]: 22%
viability, T/C [24]: 0.38%
viability, T/C [25]: 0.13%

COc1c(OCCCN2CCOCC2)ccc2c3n(c(=NC(=O)c4cnc(N)nc4)nc12)CCN3 + CC(C)NCC(C(=O)N1CCN(c2ncnc3c2C(C)CC3O)CC1)c1ccc(Cl)cc1
IC50 [1]: 160 nM
IC50 [2]: 154 nM
IC50 [3]: 92.5 nM
IC50 [4]: 47.6 nM
IC50 [5]: < 3.16 nM
viability, T/C [8]: 99.3%
viability, T/C [9]: 103%
viability, T/C [26]: 85.7%
viability, T/C [27]: 71.9%
viability, T/C (second compound 0.3 µM, first compound 0.316 µM): 19.8%
viability, T/C (second compound 0.3 µM, first compound 1 µM): 10.2%
viability, T/C [12]: 93.4%
viability, T/C [13]: 107%
viability, T/C [28]: 90.3%
viability, T/C [29]: 68.8%
viability, T/C (second compound 0.949 µM, first compound 0.316 µM): 19.5%
viability, T/C (second compound 0.949 µM, first compound 1 µM): 6.65%
viability, T/C [16]: 90.8%
viability, T/C [17]: 88.3%
viability, T/C [30]: 77.7%
viability, T/C [31]: 47.3%
viability, T/C (second compound 3 µM, first compound 0.316 µM): 19.3%
viability, T/C (second compound 3 µM, first compound 1 µM): 6.49%
viability, T/C [20]: 62%
viability, T/C [21]: 74.2%
viability, T/C [32]: 57.5%
viability, T/C [33]: 33.3%
viability, T/C (second compound 9.49 µM, first compound 0.316 µM): 11.9%
viability, T/C (second compound 9.49 µM, first compound 1 µM): 8.21%
viability, T/C [24]: 19.5%
viability, T/C [25]: 19.5%
viability, T/C [34]: 13.6%
viability, T/C [35]: 8.31%
viability, T/C (second compound 30 µM, first compound 0.316 µM): 1.28%
viability, T/C (second compound 30 µM, first compound 1 µM): 0.56%

CC(C)CC(NC(=O)CNC(=O)c1cc(Cl)ccc1Cl)B1OC(=O)CC(CC(=O)O)(C(=O)O)O1 (configuration not stated) + CC(C)NCC(C(=O)N1CCN(c2ncnc3c2C(C)CC3O)CC1)c1ccc(Cl)cc1
IC50 [1]: 8.01 nM
IC50 [2]: 7.78 nM
IC50 [3]: 5.61 nM
IC50 [4]: 4.79 nM
IC50 [5]: < 0.316 nM
viability, T/C [6]: 97.4%
viability, T/C [7]: 100%
viability, T/C [8]: 102%
viability, T/C [9]: 38.1%
viability, T/C [26]: 2.27%
viability, T/C [27]: 0.15%
viability, T/C [10]: 98.6%
viability, T/C [11]: 101%
viability, T/C [12]: 93%
viability, T/C [13]: 38%
viability, T/C [28]: 1.94%
viability, T/C [29]: 0.09%
viability, T/C [14]: 85.3%
viability, T/C [15]: 94.1%
viability, T/C [16]: 82.7%
viability, T/C [17]: 16.9%
viability, T/C [30]: 1.1%
viability, T/C [31]: 0.08%
viability, T/C [18]: 71%
viability, T/C [19]: 68.7%
viability, T/C [20]: 65.1%
viability, T/C [21]: 23.2%
viability, T/C [32]: 0.49%
viability, T/C [33]: 0.09%
viability, T/C [22]: 21.9%
viability, T/C [23]: 22.4%
viability, T/C [24]: 23.8%
viability, T/C [25]: 3.46%
viability, T/C [34]: 0.13%
viability, T/C [35]: 0.12%

CC(=O)Nc1cccc(-n2c(=O)n(C3CC3)c(=O)c3c(Nc4ccc(I)cc4F)n(C)c(=O)c(C)c32)c1
viability, T/C (compound 94.9 pM): 98.2% and 101%
viability, T/C (compound 0.0003 µM): 97.9% and 94.4%
viability, T/C (compound 0.000949 µM): 82.8% and 70%
viability, T/C (compound 0.003 µM): 41.4% and 25.6%
viability, T/C (compound 0.00949 µM): 5.07% and 3.1%
viability, T/C (compound 0.03 µM): 2.37% and 2.18%
IC50 (curve of compound): 2.32 nM and 1.58 nM
